Assay results: PubChem BioAssay AID488800 (Sanford-Burnham Center for Chemical Genomics, 2010)
Active and inactive are the calls of the source. Cut-off not given; nearly all actives show IC50 up to about 10 µM.

Molecular target: yeast expressing human caspase-1/ASC, counter-screen read-out
Experiment: interleukin-1beta converting enzyme-PYCARD signal blockade in yeast, concentration-response testing, counterassay for cryopyrin inhibitor project (AID 488800)

| SMILES | IC50 |
| --- | --- |
| Cc1onc(-c2ccccc2Cl)c1C(=O)N1C=CC(C(F)(F)F)=NCC1 | 6.51 µM |
| Brc1ccc(-n2cnc(-c3ccccc3)c2)cc1 | 10.1 µM |
| CCN(CC)c1ccc2nc3ccccc3[n+](CC)c2c1 | 6.23 µM |
| CCN1/C(=C/C=C/c2oc3ccc(-c4ccccc4)cc3[n+]2CC)Oc2ccc(-c3ccccc3)cc21 | 8.93 µM |
| CCSc1nsc(NC(=O)Nc2cccc(F)c2)n1 | 1.22 µM |
| O=C(CCS(=O)(=O)c1ccccc1)N(CCCN1CCOCC1)c1nc2c(F)cccc2s1 | 1.05 µM |
| O=C(NCCCc1ccccc1)c1c(O)nc2sccn2c1=O | 2.42 µM |
| COc1ccc(CNC(=O)c2c(C)oc3c2C(=O)c2ccccc2C3=O)cc1 | 3.11 µM |
| Cc1cccc(C(=O)O/N=C(\N)Cc2cccc3ccccc23)c1 | 1.72 µM |
| O=C(Nc1cccc(Cl)c1)c1cc(N=Nc2ccc([N+](=O)[O-])cc2Cl)ccc1O | 0.566 µM |
| CCCCCNC(=O)C(=O)C1C(=O)Nc2ccccc21 (stereo not drawn) | 1.78 µM |
| CCCCCCCCCn1c2c(c(=N)c3c1CCC3)CCC2 | 6.26 µM |
| Cc1csc2nc(O)c(C(=O)NCCC3=CCCCC3)c(=O)n12 | 2.33 µM |
| O=c1cc(-c2ccccc2Cl)oc2ccc([N+](=O)[O-])c(O)c12 | 1.89 µM |
| CCCCCC(=O)N1CCN(CCN=CC2=C(O)CC(c3ccco3)CC2=O)CC1 (stereo not drawn) | 8.62 µM |
| CCC1Nc2ncnc(N3CCN(c4ccccn4)CC3)c2N(Cc2ccc(Br)cc2)C1=O (stereo not drawn) | 3.3 µM |
| O=C(NC(=S)NNC(=O)c1ccccc1O)c1ccc(F)cc1 | 1.82 µM |
| O=c1c2ccc(Cl)cc2nc(-c2cccc(C(F)(F)F)c2)n1O | 2.67 µM |
| c1ccc(C2Nc3ccccc3C3OCCCC23)cc1 (stereo not drawn) | 0.881 µM |
| COc1c(OC(C)=O)c(=O)n2c3ccccc3c3ccnc1c32 | 0.665 µM |
| COc1cccc(NC(=O)c2ccccc2)c1 | 4.54 µM |
| O=c1c2cc(Br)ccc2nc(-c2ccc([N+](=O)[O-])cc2)n1O | 2.39 µM |
| C[C@@H]1C[C@@H]2O[C@H]2/C=C\C=C\C(=O)Cc2c(Cl)c(O)cc(O)c2C(=O)O1 | 5.66 µM |
| O=C(Nc1scc(-c2ccccc2)c1C(=O)O)c1ccc(F)cc1 | 4.03 µM |
| O=C(Nc1ccc(Cl)cc1)Nc1ccc(Cl)c(Cl)c1 | 0.805 µM |
| COc1ccc(NC(=O)C#Cc2ccccc2)cc1 | 1.44 µM |
| COc1cc(CNCCc2ccccc2)ccc1OCc1ccc(Cl)nc1 | 4.86 µM |

| SMILES | IC50 |
| --- | --- |
| CCN(CC)c1ccc2nc3ccc(N)cc3[n+](-c3ccccc3)c2c1 | 1.08 µM |
| CCC1Nc2ncnc(N3CCN(c4ccccn4)CC3)c2N(Cc2ccc(Cl)cc2)C1=O (stereo not drawn) | 3.32 µM |
| Cc1ccc(NC(=O)c2nc(S(=O)(=O)Cc3ccccc3)ncc2Cl)cc1 | 1.67 µM |
| CC(=O)Oc1c(I)cc(I)cc1C(=O)Nc1ccc(Cl)cc1 | 0.813 µM |
| CC(C)NC(=O)c1c(O)c2ccccc2[nH]c1=O | 1.19 µM |
| Cn1c(=O)c(C(=O)Nc2ncccn2)c(O)c2ccccc21 | 3.18 µM |
| N#Cc1ccc(NC(=O)Nc2ccc(Cl)cc2)cc1 | 2.98 µM |
| CC(N)C(=O)OC(C)(C)Cc1ccc(Cl)cc1 (stereo not drawn) | 4.3 µM |
| O=C(NCCC1=CCCCC1)c1c(O)nc2sccn2c1=O | 2.24 µM |
| c1ccc(Sc2cccc3ccccc23)c(CNC2=NCCN2)c1 | 7.62 µM |
| CN(CC(=O)N1CCc2ccccc2C1)c1ccccc1 | 2.22 µM |
| CCOC(=O)N1C(=O)C2(CCCCC2)N(c2ccccc2Cl)C1=S | 10.6 µM |
| CC(=O)N(/N=C1\Sc2ccccc2C1=O)c1ccccc1C | 4.55 µM |
| Cn1c(=O)c(C(=O)NNC(=O)c2ccccc2F)c(O)c2ccccc21 | 1.56 µM |
| CCCCCCCCn1c2c(c(=N)c3ccccc31)CCC2 | 8.75 µM |
| C=CCc1c(C)nc(C)nc1N/N=C/c1ccccc1O | 9.37 µM |
| O=C(NNC(=S)NC(=O)c1ccc(Br)cc1)c1ccc([N+](=O)[O-])cc1 | > 100 µM (inactive) |
| O=C(Nc1cccc(Cl)c1)c1cnn2cccnc12 | 4.35 µM |
| O=c1c2cc(Cl)ccc2nc(-c2ccc([N+](=O)[O-])cc2)n1O | 2.7 µM |
| CCCOc1ccc(C(=O)NNC(=S)NC(=O)c2cccs2)cc1 | 2.93 µM |
| O=C(Nc1cccc(Br)c1)c1cc2ccccc2o1 | 3.37 µM |
| CN(CCOc1ccccc1)c1ccc(S(=O)(=O)N2CCCCC2)cn1 | 5.1 µM |
| CCCC1CCC(c2ccc(OCC)cc2)=CC1=O (stereo not drawn) | 4.85 µM |
| Oc1c(/C=N/c2ccccn2)sc2ccccc12 | 3.8 µM |
| CCOC(=O)c1ccc2c(c1)nc(COc1ccc(OC)cc1)n2CC | 9.83 µM |
| Nc1ccc(Oc2cc(N)cc(Oc3ccccc3)c2)cc1 | 4.58 µM |
